Test results as given in patent US8871753B2, “Macrocyclic compounds and their use as kinase inhibitors” (Incyte Corporation, priority 2008, dated 2014).
Structures can show the parent of a compound that is named as a salt. Where two headings read alike, the source gives them in different places.

Key:
Assay type in all cases: biochemical
[1] = biological target: T1, human JAK1 (a.a. 837-1142) (Homo sapiens, UniProt P23458); test: In vitro JAK kinase assay (HTRF, phosphorylation of a biotinylated peptide), JAK1; settings: read-out: JAK1 IC50
T1 construct: human JAK1 (a.a. 837-1142); His tag (N); made in house; host or cells: insect cells (baculovirus)
T1 sequence (P23458 849-1154): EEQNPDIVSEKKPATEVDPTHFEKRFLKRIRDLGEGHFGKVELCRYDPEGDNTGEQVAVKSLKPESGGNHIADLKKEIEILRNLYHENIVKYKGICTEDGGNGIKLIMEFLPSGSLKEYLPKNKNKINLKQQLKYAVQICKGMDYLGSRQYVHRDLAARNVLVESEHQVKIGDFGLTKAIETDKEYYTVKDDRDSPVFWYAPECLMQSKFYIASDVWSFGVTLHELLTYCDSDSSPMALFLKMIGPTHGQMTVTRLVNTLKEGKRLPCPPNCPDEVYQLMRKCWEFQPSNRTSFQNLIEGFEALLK
In short: (§1)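 Kinase reactions ran at room temperature for 1 h with ATP matched per isoform (JAK1 90 μM, JAK2 30 μM, JAK3 3 μM). After an EDTA stop, the phosphorylated biotin-peptide was read by HTRF using Eu-Py20 and SA-APC after 40 min binding.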

[2] = biological target: T2, human JAK2 (a.a. 828-1132) (Homo sapiens, UniProt O60674); test: In vitro JAK kinase assay (HTRF, phosphorylation of a biotinylated peptide), JAK2
T2 construct: JAK2 (a.a. 828-1132); His tag (N); made in house; host or cells: insect cells (baculovirus)
T2 sequence (O60674 828-1132): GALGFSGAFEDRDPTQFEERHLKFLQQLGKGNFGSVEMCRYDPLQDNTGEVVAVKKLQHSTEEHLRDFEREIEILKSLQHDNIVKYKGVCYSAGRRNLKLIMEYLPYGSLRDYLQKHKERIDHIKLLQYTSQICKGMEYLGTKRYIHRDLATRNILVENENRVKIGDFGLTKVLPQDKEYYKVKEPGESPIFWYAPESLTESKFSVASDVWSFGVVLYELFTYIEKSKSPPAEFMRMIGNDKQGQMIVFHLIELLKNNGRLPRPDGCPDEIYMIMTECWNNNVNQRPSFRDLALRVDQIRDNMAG
In short: as §1

[3] = biological target: T3, human JAK3 (a.a. 781-1124) (Homo sapiens, UniProt P52333); test: In vitro JAK kinase assay (HTRF, phosphorylation of a biotinylated peptide), JAK3
T3 construct: JAK3 (a.a. 781-1124); His tag (N); made in house; host or cells: insect cells (baculovirus)
T3 sequence (P52333 781-1124): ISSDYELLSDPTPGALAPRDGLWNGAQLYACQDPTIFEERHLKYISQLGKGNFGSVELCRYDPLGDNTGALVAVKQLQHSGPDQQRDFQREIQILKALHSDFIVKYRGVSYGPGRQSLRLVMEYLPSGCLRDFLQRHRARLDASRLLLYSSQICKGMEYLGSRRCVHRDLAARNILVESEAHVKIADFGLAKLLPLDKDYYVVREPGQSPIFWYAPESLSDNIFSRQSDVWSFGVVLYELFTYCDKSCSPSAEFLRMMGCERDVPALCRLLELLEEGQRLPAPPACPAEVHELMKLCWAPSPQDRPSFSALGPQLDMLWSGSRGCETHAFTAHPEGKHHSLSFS
In short: as §1

TYK2 = TYK2 (Homo sapiens, UniProt P29597); test: TYK2 kinase inhibition (Table A1)
Chain of TYK2 (P29597 whole entry): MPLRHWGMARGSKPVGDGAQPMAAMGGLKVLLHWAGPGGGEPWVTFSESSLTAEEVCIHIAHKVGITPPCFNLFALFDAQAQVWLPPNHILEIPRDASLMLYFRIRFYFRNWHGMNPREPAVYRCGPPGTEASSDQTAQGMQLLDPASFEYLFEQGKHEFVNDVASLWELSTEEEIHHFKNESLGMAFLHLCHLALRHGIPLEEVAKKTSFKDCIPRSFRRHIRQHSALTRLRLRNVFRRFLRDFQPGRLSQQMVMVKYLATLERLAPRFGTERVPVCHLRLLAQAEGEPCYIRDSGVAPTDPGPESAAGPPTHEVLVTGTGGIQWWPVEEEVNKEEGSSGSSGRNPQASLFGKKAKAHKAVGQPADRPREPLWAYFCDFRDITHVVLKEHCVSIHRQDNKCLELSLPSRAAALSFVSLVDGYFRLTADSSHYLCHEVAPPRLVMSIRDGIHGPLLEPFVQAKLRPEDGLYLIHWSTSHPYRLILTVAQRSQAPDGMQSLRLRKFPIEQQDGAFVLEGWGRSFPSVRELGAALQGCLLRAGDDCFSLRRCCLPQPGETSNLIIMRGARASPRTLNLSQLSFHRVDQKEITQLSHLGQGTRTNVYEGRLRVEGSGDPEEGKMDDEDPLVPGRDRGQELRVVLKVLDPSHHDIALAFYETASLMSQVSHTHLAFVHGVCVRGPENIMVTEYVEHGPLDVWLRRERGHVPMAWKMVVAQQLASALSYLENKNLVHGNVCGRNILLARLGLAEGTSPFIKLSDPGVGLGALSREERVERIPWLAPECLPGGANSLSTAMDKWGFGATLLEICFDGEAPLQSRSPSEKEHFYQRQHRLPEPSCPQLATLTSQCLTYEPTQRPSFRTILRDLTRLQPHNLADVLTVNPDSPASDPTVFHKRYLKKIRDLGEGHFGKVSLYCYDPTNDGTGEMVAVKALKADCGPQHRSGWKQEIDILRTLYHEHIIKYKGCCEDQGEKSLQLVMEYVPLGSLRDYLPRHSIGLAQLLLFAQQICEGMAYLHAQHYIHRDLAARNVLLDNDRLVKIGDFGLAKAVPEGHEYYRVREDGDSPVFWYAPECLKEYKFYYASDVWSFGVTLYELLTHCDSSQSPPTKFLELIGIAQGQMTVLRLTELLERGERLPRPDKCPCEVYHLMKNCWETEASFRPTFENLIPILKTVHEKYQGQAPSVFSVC

[4] = biological target: T4, Recombinant Human Anaplastic Lymphoma Kinase (Homo sapiens, UniProt Q9UM73); test: ALK HTRF kinase assay
T4 construct: purchased Invitrogen, Carlsbad, Calif
T4 sequence (Q9UM73 19-1620): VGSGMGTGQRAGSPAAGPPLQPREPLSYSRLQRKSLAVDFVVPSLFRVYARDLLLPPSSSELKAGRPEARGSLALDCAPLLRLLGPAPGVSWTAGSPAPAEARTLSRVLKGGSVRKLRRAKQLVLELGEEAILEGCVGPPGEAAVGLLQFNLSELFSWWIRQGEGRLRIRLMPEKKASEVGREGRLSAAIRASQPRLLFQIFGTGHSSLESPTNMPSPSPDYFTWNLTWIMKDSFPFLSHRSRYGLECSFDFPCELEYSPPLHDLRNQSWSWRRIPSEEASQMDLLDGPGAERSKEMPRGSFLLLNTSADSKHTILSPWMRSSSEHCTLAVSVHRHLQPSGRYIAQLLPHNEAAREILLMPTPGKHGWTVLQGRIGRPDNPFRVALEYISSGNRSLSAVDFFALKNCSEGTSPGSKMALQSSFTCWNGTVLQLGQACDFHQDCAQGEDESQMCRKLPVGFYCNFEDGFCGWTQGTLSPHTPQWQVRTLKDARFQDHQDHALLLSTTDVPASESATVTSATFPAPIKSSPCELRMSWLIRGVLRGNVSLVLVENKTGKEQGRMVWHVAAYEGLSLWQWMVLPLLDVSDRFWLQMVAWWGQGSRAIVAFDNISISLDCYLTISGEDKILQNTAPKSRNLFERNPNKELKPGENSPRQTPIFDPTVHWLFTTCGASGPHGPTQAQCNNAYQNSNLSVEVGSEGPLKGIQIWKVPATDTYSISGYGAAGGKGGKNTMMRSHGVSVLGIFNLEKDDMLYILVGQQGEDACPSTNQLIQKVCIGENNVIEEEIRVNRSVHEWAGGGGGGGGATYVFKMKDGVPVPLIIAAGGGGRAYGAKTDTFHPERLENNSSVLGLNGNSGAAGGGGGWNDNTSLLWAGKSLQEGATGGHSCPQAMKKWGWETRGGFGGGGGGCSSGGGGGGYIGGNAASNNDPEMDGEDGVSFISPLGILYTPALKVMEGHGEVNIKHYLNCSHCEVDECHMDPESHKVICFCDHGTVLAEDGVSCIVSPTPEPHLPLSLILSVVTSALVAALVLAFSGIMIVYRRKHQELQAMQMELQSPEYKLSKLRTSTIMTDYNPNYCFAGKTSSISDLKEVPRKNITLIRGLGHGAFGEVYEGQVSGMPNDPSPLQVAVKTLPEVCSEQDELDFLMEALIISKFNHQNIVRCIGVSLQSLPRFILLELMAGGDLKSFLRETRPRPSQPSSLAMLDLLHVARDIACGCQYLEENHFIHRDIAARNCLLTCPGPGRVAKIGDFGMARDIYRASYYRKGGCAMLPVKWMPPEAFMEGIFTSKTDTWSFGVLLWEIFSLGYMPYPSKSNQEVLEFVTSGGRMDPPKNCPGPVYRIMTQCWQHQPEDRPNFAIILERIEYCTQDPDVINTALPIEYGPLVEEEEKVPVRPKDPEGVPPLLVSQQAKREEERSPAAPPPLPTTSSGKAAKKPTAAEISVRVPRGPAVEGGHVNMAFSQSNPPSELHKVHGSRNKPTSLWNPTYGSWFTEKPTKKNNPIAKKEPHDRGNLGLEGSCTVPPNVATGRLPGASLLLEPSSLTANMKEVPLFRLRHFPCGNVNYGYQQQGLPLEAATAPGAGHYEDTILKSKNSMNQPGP
In short: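 Readout was HTRF between a Eu-W1024 anti-phosphotyrosine antibody and streptavidin-APC bound to biotinylated peptide phosphorylated by recombinant human ALK. IC50 values came from a four-parameter logistic fit.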

[5] = compound at a concentration of 500 nM or 1 mM (not specified), cells shown as percentage
[6] = method AA1 (90 μM ATP) or AA2 (1000 μM ATP), not stated per value
[7] = method AA1 (30 μM ATP) or AA2 (1000 μM ATP), not stated per value
[8] = method AA1 (3 μM ATP) or AA2 (1000 μM ATP), not stated per value
[9] = compound at 500 nM or 1 mM, 90 μM ATP

## O=C(Nc1ccc2cc1CCc1cncc(c1)Nc1ncc(Cl)c(n1)N2)N1CCN(C(=O)c2ccccc2)CC1 [Example B286, 4-Benzoyl-N-[6-chloro-2,4,8,18,22-pentaazatetracyclo[14.3.1.1(3,7).1(9,13)]docosa-1(20),3(22),4,6,9(21),10,12,16,18-nonaen-12-yl]piperazine-1-carboxamide bis(trifluoroacetate)]
[1]; Table B1
  IC50: 43 nM
[2]; Table B1
  IC50: > 200 nM
[3]; Table B1
  IC50: > 200 nM
TYK2; Table B1
  IC50: > 200 nM
[4]; [5]
  ALK % of inhibition at a concentration of 500 nM or 1 mM: 51%

## CC(C)NC(=O)N1CCC(CC(=O)Nc2ccc3cc2CCc2cncc(c2)Nc2ncc(Cl)c(n2)N3)CC1 [Example A99, 4-(2-{[6-Chloro-2,4,8,18,22-pentaazatetracyclo[14.3.1.1(3,7).1(9,13)]docosa-1(20),3(22),4,6,9(21),10,12,16,18-nonaen-12-yl]amino}-2-oxoethyl)-N-isopropylpiperidine-1-carboxamide bis(trifluoroacetate)]
[1]; [6]
  IC50: 15 nM
[2]; [7]
  IC50: 24 nM
[3]; [8]
  IC50: 133 nM
TYK2
  IC50: 24 nM
[4]; [9]
  ALK % of inhibition at a concentration of 500 nM or 1 mM: 25%

## COc1ccc(S(=O)(=O)N2CCC(CC(=O)Nc3ccc4cc3CCc3cccc(c3)Nc3ncc(Cl)c(n3)N4)CC2)cc1 [Example A207, N-[6-Chloro-2,4,8,22-tetraazatetracyclo[14.3.1.1(3,7).1(9,13)]docosa-1(20),3(22),4,6,9(21),10,12,16,18-nonaen-12-yl]-2-{1-[(4-methoxyphenyl)sulfonyl]piperidin-4-yl}acetamide trifluoroacetate]
[1]; [6]
  IC50: 85 nM
[2]; [7]
  IC50: 199 nM
[3]; [8]
  IC50: > 200 nM
TYK2
  IC50: > 200 nM
[4]; [9]
  ALK % of inhibition at a concentration of 500 nM or 1 mM: 23%

## CN(C(=O)Nc1ccc2cc1CCc1cccc(c1)Nc1ncc(Cl)c(n1)N2)[C@H]1CCN(Cc2ccccc2)C1 [Example B283, N-[(3S)-1-Benzylpyrrolidin-3-yl]-N′-[6-chloro-2,4,8,22-tetraazatetracyclo[14.3.1.1(3,7).1(9,13)]docosa-1(20),3(22),4,6,9(21),10,12,16,18-nonaen-12-yl]-N-methylurea]
[1]; Table B1
  IC50: 141 nM
[2]; Table B1
  IC50: 165 nM
[3]; Table B1
  IC50: > 1000 nM
TYK2; Table B1
  IC50: 550 nM
[4]; [5]
  ALK % of inhibition at a concentration of 500 nM or 1 mM: 30%

## O=C(Nc1ccc2cc1CCc1cccc(c1)Nc1ncc(Cl)c(n1)N2)Nc1ccccc1OC(F)(F)F [Example B131, N-[6-Chloro-2,4,8,22-tetraazatetracyclo[14.3.1.1(3,7).1(9,13)]docosa-1(20), 3(22),4,6,9(21),10,12,16,18-nonaen-12-yl]-N′-[2-(trifluoromethoxy)phenyl]urea trifluoroacetate]
[1]; Table B1
  IC50: 7.3 nM
[2]; Table B1
  IC50: 13 nM
[3]; Table B1
  IC50: 63 nM
TYK2; Table B1
  IC50: 33 nM
[4]; [5]
  ALK % of inhibition at a concentration of 500 nM or 1 mM: 5.9%

## N#Cc1ccc(C(=O)N2CCC(C(=O)Nc3ccc4cc3CCc3cccc(c3)Nc3ncc(Cl)c(n3)N4)CC2)cc1 [Example A33, N-[6-Chloro-2,4,8,22-tetraazatetracyclo[14.3.1.1(3,7).1(9,13)]docosa-1(20), 3(22),4,6,9(21),10,12,16,18-nonaen-12-yl]-1-(4-cyanobenzoyl)piperidine-4-carboxamide trifluoroacetate]
[1]; [6]
  IC50: 30 nM
[2]; [7]
  IC50: 38 nM
[3]; [8]
  IC50: 102 nM
TYK2
  IC50: 75 nM
[4]; [9]
  ALK % of inhibition at a concentration of 500 nM or 1 mM: 26%

## Clc1cnc2nc1Nc1cccc(c1)OCCSc1cccc(c1)N2 [Example D15, 6-Chloro-14-oxa-17-thia-2,4,8,24-tetraazatetracyclo[16.3.1.1(3,7).1(9,13)]tetracosa-1(22),3(24),4,6,9(23),10,12,18,20-nonaene trifluoroacetate]
[1]; Table D1
  IC50: 93 nM
[2]; Table D1
  IC50: 61 nM
[3]; Table D1
  IC50: 135 nM
TYK2; Table D1
  IC50: 88 nM
[4]; Table D1, 90 μM ATP
  IC50: > 10000 nM

## O=C(Nc1cc2cc(c1)Nc1nc(ncc1Cl)Nc1cccc(c1)CC2)Nc1ccccc1F [Example B213, N-[6-Chloro-2,4,8,22-tetraazatetracyclo[14.3.1.1(3,7).1(9,13)]docosa-1(20),3(22),4,6,9(21),10,12,16,18-nonaen-11-yl]-N′-(2-fluorophenyl)urea trifluoroacetate]
[1]; Table B1
  IC50: 70 nM
[2]; Table B1
  IC50: 173 nM
[3]; Table B1
  IC50: 184 nM
TYK2; Table B1
  IC50: 206 nM
[4]; [5]
  ALK % of inhibition at a concentration of 500 nM or 1 mM: 11%

## CC(C)(C)OC(=O)N1CCC(CC(=O)Nc2ccc3cc2CCc2cncc(c2)Nc2ncc(Cl)c(n2)N3)CC1 [Example A70, tert-Butyl 4-(2-{[6-chloro-2,4,8,18,22-pentaazatetracyclo[14.3.1.1(3,7).1(9,13)]docosa-1(20),3(22),4,6,9(21),10,12,16,18-nonaen-12-yl]amino}-2-oxoethyl)piperidine-1-carboxylate bis(trifluoroacetate)]
[1]; [6]
  IC50: 20 nM
[2]; [7]
  IC50: 57 nM
[3]; [8]
  IC50: 195 nM
TYK2
  IC50: 110 nM
[4]; [9]
  ALK % of inhibition at a concentration of 500 nM or 1 mM: 18%

## O=C(Nc1ccc2cc1CCc1cccc(c1)Nc1ncc(Cl)c(n1)N2)N[C@H]1CCN(c2ncccn2)C1 [Example B262, N-[6-Chloro-2,4,8,22-tetraazatetracyclo[14.3.1.1(3,7).1(9,13)]docosa-1(20),3(22),4,6,9(21),10,12,16,18-nonaen-12-yl]-N′-[(3S)-1-pyrimidin-2-ylpyrrolidin-3-yl]urea bis(trifluoroacetate)]
[1]; Table B1
  IC50: 2.6 nM
[2]; Table B1
  IC50: 4.7 nM
[3]; Table B1
  IC50: 38 nM
TYK2; Table B1
  IC50: 8.7 nM
[4]; [5]
  ALK % of inhibition at a concentration of 500 nM or 1 mM: 19%

## O=C(Nc1ccc2cc1CCc1cccc(c1)Nc1ncc(Cl)c(n1)N2)c1ccco1 [Example B33, N-[6-Chloro-2,4,8,22-tetraazatetracyclo[14.3.1.1(3,7).1(9,13)]docosa-1(20), 3(22),4,6,9(21),10,12,16,18-nonaen-12-yl]-2-furamide trifluoroacetate]
[1]; Table B1
  IC50: 2.1 nM
[2]; Table B1
  IC50: 2.6 nM
[3]; Table B1
  IC50: 44 nM
TYK2; Table B1
  IC50: 9.7 nM
[4]; Table B1, cells without percent sign
  IC50: 820 nM

## O=C(Nc1ccc2cc1CCc1cccc(c1)Nc1ncc(Cl)c(n1)N2)NC1CC1 [Example B240, N-[6-Chloro-2,4,8,22-tetraazatetracyclo[14.3.1.1(3,7).1(9,13)]docosa-1(20),3(22),4,6,9(21),10,12,16,18-nonaen-12-yl]-N′-cyclopropylurea trifluoroacetate]
[1]; Table B1
  IC50: 1.5 nM
[2]; Table B1
  IC50: 0.74 nM
[3]; Table B1
  IC50: 10 nM
TYK2; Table B1
  IC50: 4 nM
[4]; [5]
  ALK % of inhibition at a concentration of 500 nM or 1 mM: 15%

## Clc1cnc2nc1Nc1ccc(CN[C@@H]3CCNC3)c(c1)CCc1cccc(c1)N2 [Example B222, (3R)—N-{[6-Chloro-2,4,8,22-tetraazatetracyclo[14.3.1.1(3,7).1(9,13)]docosa-1(20),3(22),4,6,9(21),10,12,16,18-nonaen-12-yl]methyl}pyrrolidin-3-amine tris(trifluoroacetate)]
[1]; Table B1
  IC50: 20 nM
[2]; Table B1
  IC50: 14 nM
[3]; Table B1
  IC50: 40 nM
TYK2; Table B1
  IC50: 54 nM
[4]; [5]
  ALK % of inhibition at a concentration of 500 nM or 1 mM: 34%

## O=C(Nc1ccc2cc1CCc1cccc(c1)Nc1ncc(Cl)c(n1)N2)N[C@H]1CCN(C(=O)c2ccccc2)C1 [Example B170, N-[(3S)-1-Benzoylpyrrolidin-3-yl]-N′-[6-chloro-2,4,8,22-tetraazatetracyclo[14.3.1.1(3,7).1(9,13)]docosa-1(20),3(22),4,6,9(21),10,12,16,18-nonaen-12-yl]urea trifluoroacetate]
[1]; Table B1
  IC50: 1.6 nM
[2]; Table B1
  IC50: 17 nM
[3]; Table B1
  IC50: 228 nM
TYK2; Table B1
  IC50: 34 nM
[4]; [5]
  ALK % of inhibition at a concentration of 500 nM or 1 mM: 12%
